From patent publication US9181235B2, “Substituted pyridines for modulating the WNT signaling pathway” (NOVARTIS AG, priority 2010, dated 2015)

These compounds were tested on Wnt signaling (assay: Wnt-Luc reporter assay for pathway inhibition of Wnt signaling). Settings: Wnt-Luc reporter cells co-cultured with L-cell Wnt3a cells, 24 hours, luciferase signal reduced by 50%.
Type: cell-based, mouse (TM3 Wnt-Luc) or human (293 Wnt-Luc); not stated which
Description: This example provides a method that is useful for evaluating test compounds for inhibition of Wnt signaling.
Mouse leydig cell TM3 cells (obtained from American Type Culture Collection, ATCC, Manassas, Va.) are cultured in 1:1 mixture of Ham's F12 medium and Dulbecco's modified Eagle's medium (Gibco/Invitrogen, Carlsbad, Calif.) supplemented with 2.5% FBS (Gibco/Invitrogen, Carlsbad, Calif.) and 5% horse serum (Gibco/Invitrogen, Carlsbad, Calif.), 50 unit/mL penicillin and 50 μg/mL of streptomycin (Gibco/Invitrogen, Carlsbad, Calif.) at 37° C. with 5% CO2 in air atmosphere. TM3 cells in a 10 cm dish are co-transfected with 8 μg of STF-reporter plasmid containing a luciferase gene driven by Wnt-responsive elements and 2 μg of pcDNA3.1-Neo (Gibco/Invitrogen, Carlsbad, Calif.) with 30 μL of FuGENE6 (Roche Diagnostics, Indianapolis, Ind.) following the manufacturer's protocol. Stable cell lines (TM3 Wnt-Luc) were selected with 400 μg/mL of G418 (Gibco/Invitrogen, Carlsbad, Calif.). The TM3 Wnt-Luc cells and L-cell Wnt3a cells (obtained from American Type Culture Collection, ATCC, Manassas, Va.; cultured in Dulbecco's modified Eagle's medium (Gibco/Invitrogen, Carlsbad, Calif.) supplemented with 10% FBS (Gibco/Invitrogen, Carlsbad, Calif.) and 50 unit/mL penicillin and 50 μg/mL of streptomycin (Gibco/Invitrogen, Carlsbad, Calif.) at 37° C. with 5% CO2 in air atmosphere) are trypsinized and co-cultured into a 384-well plate with DMEM medium supplemented with 2% FBS, and treated with different concentrations of a compound of the invention. After 24 hours, the firefly luciferase activities are assayed with the Bright-Glo™ Luciferase Assay System (Promega, Madison, Wis.). The IC50 is measured when the effect of the compound reduces the luminescence signal by 50%.
This example provides another method that is useful for evaluating test compounds for inhibition of Wnt signaling.
Human embryonic kidney 293 cells (obtained from American Type Culture Collection, ATCC, Manassas, Va.) are cultured in DMEM medium (Gibco/Invitrogen, Carlsbad, Calif.) supplemented with 10% FBS (Gibco/Invitrogen, Carlsbad, Calif.), 50 unit/mL penicillin and 50 μg/mL of streptomycin (Gibco/Invitrogen, Carlsbad, Calif.) at 37° C. with 5% CO2 in air atmosphere. 293 cells in a 10 cm dish are co-transfected with 8 μg of STF-reporter plasmid containing a luciferase gene driven by Wnt-responsive elements and 2 μg of pcDNA3.1-Neo (Gibco/Invitrogen, Carlsbad, Calif.) with 30 μL of FuGENE6 (Roche Diagnostics, Indianapolis, Ind.) following the manufacturer's protocol. Stable cell lines (293 Wnt-Luc) were selected with 400 μg/mL of G418 (Gibco/Invitrogen, Carlsbad, Calif.). The 293 Wnt-Luc cells and L-cell Wnt3a cells (obtained from American Type Culture Collection, ATCC, Manassas, Va.) are trypsinized and co-cultured into a 384-well plate with DMEM medium supplemented with 2% FBS, and treated with different concentrations of a compound of the invention. After 24 hours, the firefly luciferase activities are assayed with the Bright-Glo™ Luciferase Assay System (Promega, Madison, Wis.). The IC50 is measured when the effect of the compound reduces the luminescence signal by 50%.
`CC(=O)c1cccc(-c2ccc(C(=O)NCc3ccc(-c4ccnc(C)c4)nc3)nc2)c1` [compound 31, 5-(3-acetylphenyl)-N-{[6-(2-methylpyridin-4-yl)pyridin-3-yl]methyl}pyridine-2-carboxamide] was tested, and the IC50 was 8 nM. Work on `O=C(NCc1ccc(-c2ccnc(C(F)(F)F)c2)nc1)c1ccc(-c2cnccn2)cc1` [compound 32, 4-(pyrazin-2-yl)-N-({6-[2-(trifluoromethyl)pyridin-4-yl]pyridin-3-yl}methyl)benzamide] yielded an IC50 of 0.7 nM. Compound `O=C(NCc1ccc(-c2ccnc(C(F)(F)F)c2)nc1)c1ccc(-c2cccc(F)c2)cn1` [compound 33, 5-(3-Fluorophenyl)-N-((2′-(trifluoromethyl)-2,4′-bipyridin-5-yl)methyl)picolinamide] has an IC50 of 0.2 nM. In the case of `Cc1cc(-c2ccc(CNC(=O)c3ccc(-c4ccc(F)cc4)cn3)cn2)ccn1` [compound 35, 5-(4-fluorophenyl)-N-{[6-(2-methylpyridin-4-yl)pyridin-3-yl]methyl}pyridine-2-carboxamide], the IC50 is reported as 4.9 nM. `Cc1cc(-c2ncc(CNC(=O)c3ccc(-c4cccc(F)c4)cn3)cc2C)ccn1` [compound 36, 5-(3-fluorophenyl)-N-{[5-methyl-6-(2-methylpyridin-4-yl)pyridin-3-yl]methyl}pyridine-2-carboxamide] showed an IC50 of 0.3 nM. `O=C(NCc1ccc(-c2ccnc(F)c2)nc1)c1ccc(-c2ccnnc2)cn1` [compound 37, N-{[6-(2-fluoropyridin-4-yl)pyridin-3-yl]methyl}-5-(pyridazin-4-yl)pyridine-2-carboxamide] gave an IC50 of 42 nM. `CN(C)c1ccc(-c2ccc(C(=O)NCc3ccc(-c4ccnc(F)c4)nc3)nc2)cn1` [compound 38, 6′-(Dimethylamino)-N-((2′-fluoro-2,4′-bipyridin-5-yl)methyl)-3,3′-bipyridine-6-carboxamide] gave an IC50 of 0.56 nM. Compound `Cc1cc(CNC(=O)c2ccc(-c3cnccn3)cn2)cnc1-c1ccnc(F)c1` [compound 39, N-{[6-(2-fluoropyridin-4-yl)-5-methylpyridin-3-yl]methyl}-5-(pyrazin-2-yl)pyridine-2-carboxamide] has an IC50 of 0.26 nM. With `Cc1cc(CNC(=O)c2ccc(-c3cnccn3)nc2)cnc1-c1ccnc(F)c1` [compound 40, N-{[6-(2-fluoropyridin-4-yl)-5-methylpyridin-3-yl]methyl}-6-(pyrazin-2-yl)pyridine-3-carboxamide] the IC50 was 0.76 nM. Work on `O=C(NCc1ccc(-c2ccnc(C(F)(F)F)c2)nc1)c1ccc(-c2cnccn2)cn1` [compound 41, 5-(Pyrazin-2-yl)-N-((2′-(trifluoromethyl)-2,4′-bipyridin-5-yl)methyl)picolinamide] yielded an IC50 of 0.36 nM. `O=C(NCc1ccc(-c2ccnc(C(F)(F)F)c2)nc1)c1ccc(-c2cnccn2)nc1` [compound 42, 6-(Pyrazin-2-yl)-N-((2′-(trifluoromethyl)-2,4′-bipyridin-5-yl)methyl)nicotinamide] showed an IC50 of 0.79 nM. `CS(=O)(=O)c1cccc(-c2ccc(C(=O)NCc3ccc(-c4ccnc(F)c4)nc3)nc2)c1` [compound 43, N-((2′-Fluoro-2,4′-bipyridin-5-yl)methyl)-5-(3-(methylsulfonyl)phenyl)picolinamide] gave an IC50 of 718 nM. `O=C(NCc1ccc(-c2ccnc(F)c2)nc1)c1ccc(-n2ccccc2=O)cn1` [compound 44, N-((2′-fluoro-[2,4′-bipyridin]-5-yl)methyl)-2-oxo-2H-[1,3′-bipyridine]-6′-carboxamide] showed an IC50 of 465 nM. Work on `Cc1cc(-c2ccc(CNC(=O)c3ccc(-c4ccccc4C)cc3)cn2)ccn1` [compound 45, 4-(2-methylphenyl)-N-{[6-(2-methylpyridin-4-yl)pyridin-3-yl]methyl}benzamide] yielded an IC50 of 3.5 nM. With `CC(=O)N1CCN(c2ccc(C(=O)NCc3cnc(-c4ccnc(C(F)(F)F)c4)c(F)c3)cn2)CC1` [compound 46, 6-(4-Acetylpiperazin-1-yl)-N-((3-fluoro-2′-(trifluoromethyl)-[2,4′-bipyridin]-5-yl)methyl)nicotinamide] the IC50 was 4.2 nM. `Cc1cc(CNC(=O)c2ccc(-c3cccc(F)c3)nc2)cnc1-c1ccnc(C(F)(F)F)c1` [compound 47, 6-(3-fluorophenyl)-N-({5-methyl-6-[2-(trifluoromethyl)pyridin-4-yl]pyridin-3-yl}methyl)pyridine-3-carboxamide] gave an IC50 of 0.26 nM. `CC(=O)N1CCN(c2ccc(C(=O)NCc3cnc(-c4ccnc(C(F)(F)F)c4)c(C)c3)nc2)CC1` [compound 48, 5-(4-Acetylpiperazin-1-yl)-N-((3-methyl-2′-(trifluoromethyl)-2,4′-bipyridin-5-yl)methyl)picolinamide] was tested, and the IC50 was 26 nM. Work on `COC(=O)N1CCN(c2ccc(C(=O)NCc3cnc(-c4ccnc(C(F)(F)F)c4)c(F)c3)nc2)CC1` [compound 49, Methyl 4-(6-((3-fluoro-2′-(trifluoromethyl)-2,4′-bipyridin-5-yl)methylcarbamoyl)pyridin-3-yl)piperazine-1-carboxylate] yielded an IC50 of 0.24 nM. Work on `Cc1cc(-c2ccc(CNC(=O)c3ccc(-c4ccccc4)c(C)c3)cn2)ccn1` [compound 50, 3-methyl-N-{[6-(2-methylpyridin-4-yl)pyridin-3-yl]methyl}-4-phenylbenzamide] yielded an IC50 of 3 nM. For `Cc1cc(CNC(=O)c2ccc(-c3cccnn3)nc2)cnc1-c1ccnc(F)c1` [compound 52, N-{[6-(2-fluoropyridin-4-yl)-5-methylpyridin-3-yl]methyl}-6-(pyridazin-3-yl)pyridine-3-carboxamide], the IC50 was 1.6 nM. Work on `Cc1cc(CNC(=O)c2ccc(-c3cccnn3)nc2)cnc1-c1ccnc(C(F)(F)F)c1` [compound 53, N-({5-methyl-6-[2-(trifluoromethyl)pyridin-4-yl]pyridin-3-yl}methyl)-6-(pyridazin-3-yl)pyridine-3-carboxamide] yielded an IC50 of 10.2 nM. Compound `Cc1cc(CNC(=O)c2ccc(-c3cnccn3)nc2)cnc1-c1ccnc(C(F)(F)F)c1` [compound 54, N-({5-methyl-6-[2-(trifluoromethyl)pyridin-4-yl]pyridin-3-yl}methyl)-6-(pyrazin-2-yl)pyridine-3-carboxamide] has an IC50 of 1.2 nM. Compound `Cc1cc(CNC(=O)c2ccc(-c3cnccn3)cn2)cnc1-c1ccnc(C(F)(F)F)c1` [compound 55, N-((3-Methyl-2′-(trifluoromethyl)-2,4′-bipyridin-5-yl)methyl)-5-(pyrazin-2-yl)picolinamide] has an IC50 of 0.8 nM. `O=C(NCc1ccn(-c2ccnc(C(F)(F)F)c2)c(=O)c1)c1ccc(-c2cnccn2)cn1` [compound 56, N-((2-oxo-1-(2-(trifluoromethyl)pyridin-4-yl)-1,2-dihydropyridin-4-yl)methyl)-5-(pyrazin-2-yl)picolinamide] showed an IC50 of 34 nM. `Cc1cc(CNC(=O)c2ccc(-c3cccc(F)c3)cn2)cnc1-c1ccnc(C(F)(F)F)c1` [compound 57, 5-(3-fluorophenyl)-N-({5-methyl-6-[2-(trifluoromethyl)pyridin-4-yl]pyridin-3-yl}methyl)pyridine-2-carboxamide] gave an IC50 of 0.35 nM. `Cc1cc(CNC(=O)c2ccc(-c3cnccn3)cc2)cnc1-c1ccnc(C(F)(F)F)c1` [compound 58, N-((3-Methyl-2′-(trifluoromethyl)-2,4′-bipyridin-5-yl)methyl)-4-(pyrazin-2-yl)benzamide] showed an IC50 of 0.41 nM. Compound `Cc1cc(-c2ncc(CNC(=O)c3ccc(-c4cccc(F)c4)cn3)cc2F)ccn1` [compound 59, N-{[5-fluoro-6-(2-methylpyridin-4-yl)pyridin-3-yl]methyl}-5-(3-fluorophenyl)pyridine-2-carboxamide] has an IC50 of 0.29 nM.
